The values below are quoted from earlier work in patent US7838691B2, “Palmerolides: methods of preparation and derivatives thereof” (Board of Regents, of the University of Texas System, priority 2007, dated 2010).

Series [1] has as its system several cancer cell lines including melanoma, colon cancer, and renal cancer.
The target in the next series is bovine brain V-ATPase. To be noted: in vitro.

By IC50 is commonly meant the concentration needed to halve the response being measured. `CC(C)=CC(=O)N/C=C/C(C)=C/[C@@H](C)[C@H]1C/C(C)=C/C=C/CC[C@H](OC(N)=O)[C@@H](O)/C=C/[C@@H](O)CCC/C=C/C(=O)O1` [Palmerolide A]: the cytotoxicity result in series [1] is given as “selective cytotoxin”. The IC50 at bovine brain V-ATPase is roughly 2 nM.
